From the supplement of paper PMC10307832

Assays:
Test in all cases: relative viability (nuclei count vs DMSO), 5 days (fraction); higher = more cells survive
OSI-027 + Tozasertib = compound: COc1cccc2cc(-c3nc([C@H]4CC[C@H](C(=O)O)CC4)n4ncnc(N)c34)[nH]c12 [OSI-027] + Cc1cc(Nc2cc(N3CCN(C)CC3)nc(Sc3ccc(NC(=O)C4CC4)cc3)n2)n[nH]1 [Tozasertib] (partner 0.1 µM)
Method in brief: (§1)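 Relative viability is defined as nuclei in treated wells over nuclei in vehicle wells. Duplicate plates were run and medians reported. Lung cancer cell lines in 1536-well plates were dosed by pin tool one day after seeding, with one drug or with a fixed anchor-drug dose plus five library-drug doses (not always all listed) in √10 steps, and nuclei were counted after 5 days.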

Alpelisib + Lapatinib = compound: Cc1nc(NC(=O)N2CCC[C@H]2C(N)=O)sc1-c1ccnc(C(C)(C)C(F)(F)F)c1 [Alpelisib] + CS(=O)(=O)CCNCc1ccc(-c2ccc3ncnc(Nc4ccc(OCc5cccc(F)c5)c(Cl)c4)c3c2)o1 [Lapatinib] (partner 2 µM)
Method in brief: as §1

Vemurafenib + Olaparib = compound: CCCS(=O)(=O)Nc1ccc(F)c(C(=O)c2c[nH]c3ncc(-c4ccc(Cl)cc4)cc23)c1F [Vemurafenib] + O=C(c1cc(Cc2n[nH]c(=O)c3ccccc23)ccc1F)N1CCN(C(=O)C2CC2)CC1 [Olaparib] (partner 8 µM)
Method in brief: as §1

Vemurafenib + Luminespib = compound: CCCS(=O)(=O)Nc1ccc(F)c(C(=O)c2c[nH]c3ncc(-c4ccc(Cl)cc4)cc23)c1F [Vemurafenib] + CCNC(=O)c1noc(-c2cc(C(C)C)c(O)cc2O)c1-c1ccc(CN2CCOCC2)cc1 [Luminespib] (partner 0.01 µM)
Method in brief: as §1

Row | Cell Line | relative viability (OSI-027 + Tozasertib; first compound 0.01 µM) | relative viability (OSI-027 + Tozasertib; first compound 0.03162 µM) | relative viability (OSI-027 + Tozasertib; first compound 0.1 µM) | relative viability (OSI-027 + Tozasertib; first compound 0.3162 µM) | relative viability (OSI-027 + Tozasertib; first compound 1 µM) | relative viability (Alpelisib + Lapatinib; first compound 0.04 µM) | relative viability (Alpelisib + Lapatinib; first compound 0.1265 µM) | relative viability (Alpelisib + Lapatinib; first compound 0.4 µM) | relative viability (Alpelisib + Lapatinib; first compound 1.265 µM) | relative viability (Alpelisib + Lapatinib; first compound 4 µM) | relative viability (Vemurafenib + Olaparib; first compound 0.03162 µM) | relative viability (Vemurafenib + Olaparib; first compound 0.1 µM) | relative viability (Vemurafenib + Olaparib; first compound 0.3162 µM) | relative viability (Vemurafenib + Olaparib; first compound 1 µM) | relative viability (Vemurafenib + Luminespib; first compound 0.03162 µM) | relative viability (Vemurafenib + Luminespib; first compound 0.1 µM) | relative viability (Vemurafenib + Luminespib; first compound 1 µM) | relative viability (Vemurafenib + Luminespib; first compound 0.3162 µM)
1 | NCI-H2126 | 0.811 | 0.848 | 0.725 | 0.745 | 0.538 | 0.75 | 0.704 | 0.701 | 0.567 | 0.499 | 0.835 | 0.956 | 0.92 | 0.922 | 0.847 | 0.905 | 0.972 | 
2 | NCI-H2170 | 0.71 | 0.658 | 0.603 | 0.733 | 0.435 | 0.269 | 0.273 | 0.239 | 0.248 | 0.269 | 0.54 |  | 0.624 | 0.553 | 0.58 | 0.486 | 0.545 | 0.559
3 | NCI-H2228 | 0.246 | 0.242 | 0.242 | 0.207 | 0.16 | 1.02 | 0.788 | 1.07 | 0.794 | 0.486 | 0.639 | 0.87 | 0.611 | 0.6 | 0.148 | 0.161 | 0.172 | 0.19
4 | NCI-H2347 | 0.362 | 0.467 | 0.58 | 0.564 | 0.317 | 0.991 | 0.989 | 1.33 | 0.873 | 0.83 | 0.495 | 0.493 | 0.547 | 0.588 | 0.626 | 0.164 | 0.71 | 0.552
5 | NCI-H2405 | 0.754 | 0.715 | 0.76 | 0.79 | 0.467 | 1.07 | 0.945 | 1.18 | 0.783 | 0.781 | 0.857 | 0.893 |  | 0.937 | 0.667 | 0.625 | 0.576 | 
6 | NCI-H3122 | 0.542 | 0.38 | 0.385 | 0.434 | 0.287 | 1.01 | 1.02 | 1.07 | 1.02 | 0.919 | 0.63 | 0.647 | 0.606 | 0.597 | 0.138 | 0.123 | 0.101 | 0.0825
7 | PC-3 [JPC-3] | 1.03 | 0.808 | 0.844 | 0.841 | 0.351 | 0.438 | 0.555 | 0.404 | 0.424 | 0.394 |  |  | 1.05 | 1.25 | 0.671 |  | 0.782 | 0.724
8 | PC-14 | 0.564 | 0.577 | 0.598 | 0.636 | 0.505 | 0.358 | 0.401 | 0.301 | 0.265 | 0.235 | 0.292 |  | 0.304 | 0.292 | 0.234 |  | 0.148 | 0.18
9 | RERF-LC-KJ | 0.453 | 0.531 | 0.477 | 0.468 | 0.385 | 0.795 | 0.773 | 0.867 | 0.64 | 0.735 | 0.842 | 0.944 | 0.923 | 1.06 | 1.26 | 0.991 | 1.31 | 1.26
10 | SK-LU-1 | 0.295 | 0.331 | 0.303 | 0.248 | 0.241 | 1.07 | 0.707 | 0.858 | 0.767 | 0.704 | 0.368 | 0.418 | 0.393 | 0.392 | 0.208 | 0.219 | 0.218 | 0.171
11 | SK-MES-1 | 0.923 | 0.842 | 0.807 | 0.744 | 0.402 | 0.454 | 0.463 | 0.483 | 0.409 | 0.37 | 0.623 | 0.576 | 0.777 | 0.688 | 0.866 | 0.553 | 0.745 | 0.646
12 | SW 1573 | 0.186 | 0.197 | 0.206 | 0.142 | 0.178 | 1.06 | 1.06 | 1.06 | 1.09 | 0.873 | 0.435 | 0.414 | 0.577 | 0.531 | 0.16 | 0.583 | 0.194 | 0.377
